Reference: US20110152223A1, “THERAPEUTIC AGENT FOR ANCA-RELATED VASCULITIS” (priority 2008, published 2011)

Key:
Type in all cases: in vivo
MPO-ANCA = MPO-ANCA in the serum of SCG/Kj mice by ELISA (ANCA production); details: 5% EPA-E diet from seven weeks old until completed 11th week of age, absorbance at 405 nm
Protocol: SCG/Kj mice (seven weeks old) were divided into three groups comprising 6 or 7 animals each, and fed under the same conditions as Example 1 until they completed their 11th week of age. Groups of B6 mice (two animals) and of SCG/Kj mice (15 weeks old; three animals) were further provided, and the five groups were subjected to the absorbance measurement for MPO-ANCA in the serum by an ELISA technique.
The MPO-ANCA titer was measured by following a method having already been reported (Ishida-Okawara, A., Ito-Ihara, T., Muso, E. et al., Neutrophil contribution to the crescentic glomerulonephritis in SCG/Kj mice, Nephrol. Dial. Transplant. 2004; 19: 1708-1715). To put it briefly: Recombinant mouse MPO was coated onto an ELISA plate (Toyoshima Co., Tokyo, Japan) at 4° C. overnight. The plate was blocked with 1% bovine serum albumin (BSA) (Sigma), then incubated at room temperature for 1.5 hours in the presence of mouse serum (50-fold dilution).
Bound MPO-ANCA was detected after an incubation for two hours in the presence of an alkaline phosphatase-labeled anti-mouse IgG antibody (Cappel). Subsequently, the secondary antibody as bound was quantified by measuring the absorbance at 405 nm after an incubation in the presence of 1 mg/ml of p-nitrophenyl phosphate (Sigma).

PD-1 = assay: mRNA expression level of PD-1 in the kidneys of SCG/Kj mice (quantitative real-time PCR); details: 5% EPA-E diet from seven weeks old until completed 11th week of age
Protocol: (§1) SCG/Kj mice (seven weeks old) were divided into three groups comprising 6 or 7 animals each, and fed under the same conditions as Example 1 until they completed their 11th week of age. The mRNA expression levels of PD-1, PD-L1, PD-L2, Foxp3, and CTLA4 in the kidneys, lungs and spleens of the mice were evaluated.
(§2) A frozen kidney was homogenized in a TRIzol® reagent (Invitrogen, Carlsbad, Calif.). Total RNA was prepared from the homogenate, and purified using PureLink Micro-to-Midi Total RNA Purification System (Invitrogen). SuperScript™ III first-strand synthesis system (Invitrogen) was used to prepare cDNA from the purified total RNA, and quantitative real-time PCR was conducted with ABI Prism® 7000 (Applied Biosystems, Foster City, Calif.). For primers and probes for PCR, TaqMan® gene expression assays (Applied Biosystems) were used.

Foxp3 = assay: mRNA expression level of Foxp3 in the kidneys of SCG/Kj mice (quantitative real-time PCR); details: 5% EPA-E diet from seven weeks old until completed 11th week of age
Protocol: as §1, §2

CTLA4 = assay: mRNA expression level of CTLA4 in the kidneys of SCG/Kj mice (quantitative real-time PCR); details: 5% EPA-E diet from seven weeks old until completed 11th week of age
Protocol: as §1, §2

PD-L2 = assay: mRNA expression level of PD-L2 in the kidneys of SCG/Kj mice (quantitative real-time PCR); details: 5% EPA-E diet from seven weeks old until completed 11th week of age
Protocol: as §1, §2

SCG/Kj mice = assay: Action of EPA on the survival rate of SCG/Kj mice as an ANCA model; details: SCG/Kj mice fed 5% diet in a free-feeding state from seven weeks old
Description: SCG/Kj mice (seven weeks old) as a spontaneous ANCA vasculitis/nephritis model (Nippon Kayaku Co., Ltd.) were divided into three groups comprising 6 or 7 animals each, and fed on (1) fish meal-free feed F1 (Funakoshi Co., Ltd.) (control group), (2) 5% corn oil diet (manufactured by Sigma Corporation) (corn oil group), or (3) 5% EPA-E diet (diet F1 with 5% EPA-E added thereto) (EPA group) in a free-feeding state so as to observe the survival rate.

PD-L1 = assay: mRNA expression level of PD-L1 in the kidneys of SCG/Kj mice (quantitative real-time PCR); details: 5% EPA-E diet from seven weeks old until completed 11th week of age
Protocol: as §1, §2

## CC/C=C\C/C=C\C/C=C\C/C=C\C/C=C\CCCC(=O)OCC [EPA-E, ethyl icosapentate ester]
MPO-ANCA
  ANCA levels relative to normal mice (B6): comparable to those of the normal mice (B6)
  ANCA production as compared with the control group and the corn oil group: evidently suppressed
PD-1
  PD-1 mRNA expression level in the kidney as compared with the control group: likely to be increased
Foxp3
  Foxp3 mRNA expression level in the kidney as compared with the control group: significantly increased
CTLA4
  CTLA4 mRNA expression level in the kidney as compared with the control group: likely to be increased
PD-L2
  PD-L2 mRNA expression level in the kidney as compared with the control group: likely to be increased
SCG/Kj mice
  age at which the survival rate began to decrease: about 15 weeks old
  survival-prolonging effect: has a survival-prolonging effect
PD-L1
  PD-L1 mRNA expression level in the kidney as compared with the control group: likely to be increased
